Here are results for two compounds from patent US12617770B2, “IRAK inhibitor and preparation method therefor and use thereof” (WUHAN CREATERNA SCIENCE AND TECHNOLOGY CO., LTD., priority 2019, dated 2026).

In general, IC50 refers to the concentration needed to halve the response being measured.

SMILES strings stand for the structures. Some results are limits rather than exact numbers.

The nature of data set [1]: Plasma protein binding (PPB), equilibrium dialysis, rat plasma. The following applies: 5 h at 37° C., read-out: Plasma protein binding (Bound %) Rat (converted). The class given is in vitro ADME. On the procedure: The experiment is intended to determine plasma protein binding (PPB) data of the test compounds disclosed herein.
In the PPB experiment, the final administration matrix contained the test compound or a reference compound with a concentration of 1 μM and DMSO with a content of 0.2%.
Collecting samples in initial time: 25 μL of the matrix containing the compound was added into a blank 96-well collecting plate, and the plate was stored at −20° C.
An equilibrated dialysis device was prepared. 100 μL of buffer was added to the receiving side of the equilibrium dialysis plate. Then 100 μL of the administration matrix containing the compound or the reference compound was added into an administration side of the equilibrium dialysis plate. The prepared equilibrium dialysis plate was placed in a 37° C. shaker to be shaken for 5 h at 60 rpm.
Sample was prepared at the end of cultivation (5 h): Preparing sample in the receiving side: 25 μL of sample from a receiving side was taken out and placed in a 96-well sample collecting plate, and 25 μL of a corresponding matrix (blank plasma) was added for mixing: 200 μL of ACN containing an internal standard was added, shaken for 10 minutes at 600 rpm, and centrifuged at 5594 g for 15 min.
Preparing sample in the administration side: 25 μL of the sample containing test compound and reference compound from the administration side was taken out and 25 μL of a blank buffer was added for mixing; 200 μL of ACN containing an internal standard was added, shaken for 10 minutes at 600 rpm, and centrifuged at 5594 g for 15 min.
Preparing sample in initial time: the sample containing test compound and reference compound was re-melted at 37° C. in initial time and then mixed with the corresponding matrix (blank buffer) in the same volume (25 μL); 200 μL of ACN containing an internal standard was added, shaken for 10 minutes at 600 rpm, and centrifuged at 5594 g for 15 min.
After all the samples were centrifuged, 50 μL of a supernatant was taken and added into 50 μL of ultrapure water for mixing, and the samples were sent to liquid chromatography-mass spectrometry.

For a further data set, the system named is TNF-α release. Nature of the data set: Inhibition of cytokine TNF-α release in LPS-induced Balb/c female mice. In kind it is in vivo. As to conditions: oral gavage 16 h before LPS (i.p. 0.2 mg/kg); serum 1.5 h after stimulation. How it is done:
Female Balb/c mice were randomized into groups, each containing 4 mice, including a control+vehicle group, a model+vehicle group, a model+reference group and model+compound groups. The control animals received an intraperitoneal injection of normal saline (10 mL/kg) and the model animals received LPS stimulation (Sigma CAT #L2630, i.p., 10 mL/kg, 0.2 mg/kg). To the test compounds, DMSO, Solutol and 10 mM PBS were sequentially added to prepare a solution or suspension of required concentration for administration. For the vehicle, DMSO, Solutol and 10 mM PBS were mixed in a volume ratio of 5:15:80. The animals were administered through oral gavage (10 mL/kg) 16 h before LPS (or saline) stimulation at predetermined doses, and euthanized with CO2 at 1.5 h after the stimulation for cardiac blood collection. The whole blood was not anticoagulated, incubated in wet ice for 1.5 h, and centrifuged at 2000×g at 4° C. for 10 min to separate the serum. Serum was frozen at −80° C. for TNF-α assay. Quantification of TNF-α was done by TNF-α ELISA kit according to the manufacturer's instructions. The readings of absorbance at A450 were measured with a microplate reader SpectraMax i3x (Molecular Device) for calculating the inhibition of the compounds, and IC50 was calculated with GraphPad Prism 7.0 software. […] In particular, some exemplary compound inhibition rate values are as follows: […]

The next data set addresses T1, CYP2C9 (Homo sapiens, UniProt P11712).
T1 construct: co-incubated at 7 concentrations with human liver microsomes and five probe substrates; tissue Corning (USA); host or cells: mixed (pooled) human liver microsomes
The experiment in a line: CYP450 inhibition in human liver microsomes, CYP2C9. In kind it is in vitro ADME. The following applies: pooled (mixed) human liver microsomes, probe diclofenac. On the procedure: (§1) This study was intended to investigate the inhibitory effect of the test compounds on 5 major enzymes in human P450 superfamily, CYP1A2, 2C9, 2C19, 2D6 and 3A4-M. The mixed human liver microsomes used in this assay were purchased from Corning (USA). The test compound (compound 14) was co-incubated at 7 concentrations with human liver microsomes and five probe substrates (phenacetin for CYP1a2, diclofenac for CYP2C9, mephenytoin for CYP2C19, dextromethorphan for CYP2D6, midazolam for CYP3A4-M, mixed). The reaction was initiated by adding coenzyme NADPH, and terminated by adding acetonitrile containing internal standard. After the proteins were precipitated, the supernatant was centrifuged. The characteristic metabolites in the supernatant (acetaminophen for CYP1A2, 4-hydroxydiclofenac for CYP2C9, 4-hydroxymephenytoin for CYP2C19, dextrorphan for CYP2D6, 1-hydroxymidazolam for CYP3A4-M) were analyzed by LC-MS/MS. The influence of the test compounds on production of the characteristic metabolites was finally analyzed on the basis of the data obtained. A selective inhibitor (ketoconazole for CYP3A4-M) may be used as positive control. All samples were tested in duplicate.
Background: Microsomes from liver hold many membrane-bound enzymes, among them those of drug oxidation.

In a further data set the target is T2, CYP2C19 (Homo sapiens, UniProt P33261).
T2 construct: co-incubated at 7 concentrations with human liver microsomes and five probe substrates; tissue Corning (USA); host or cells: mixed (pooled) human liver microsomes
Nature of the data set: CYP450 inhibition in human liver microsomes, CYP2C19. The class given is in vitro ADME. As to conditions: pooled (mixed) human liver microsomes, probe mephenytoin. How it is done:
as §1

A further data set concerns the target T3, CYP2D6 (Homo sapiens, UniProt P10635).
T3 construct: co-incubated at 7 concentrations with human liver microsomes and five probe substrates; tissue Corning (USA); host or cells: mixed (pooled) human liver microsomes
The experiment in a line: CYP450 inhibition in human liver microsomes, CYP2D6. As to conditions: pooled (mixed) human liver microsomes, probe dextromethorphan; human liver microsomes, dextromethorphan; read-out: CYP2D6 IC50. In kind it is in vitro ADME. On the procedure: as §1

The next data set concerns the target T4, CYP3A4 (Homo sapiens, UniProt P08684).
T4 construct: The test compounds were co-incubated with the human liver microsomes and a probe substrate midazolam (CYP3A4); tissue Corning (USA); host or cells: mixed (pooled) human liver microsomes
The experiment in a line: CYP450 inhibition in human liver microsomes, CYP3A4-M. In kind it is in vitro ADME. The following applies: pooled (mixed) human liver microsomes, probe midazolam; human liver microsomes, midazolam; read-out: CYP3A4 IC50. On the procedure: as §1

T2 sequence (P33261 whole entry): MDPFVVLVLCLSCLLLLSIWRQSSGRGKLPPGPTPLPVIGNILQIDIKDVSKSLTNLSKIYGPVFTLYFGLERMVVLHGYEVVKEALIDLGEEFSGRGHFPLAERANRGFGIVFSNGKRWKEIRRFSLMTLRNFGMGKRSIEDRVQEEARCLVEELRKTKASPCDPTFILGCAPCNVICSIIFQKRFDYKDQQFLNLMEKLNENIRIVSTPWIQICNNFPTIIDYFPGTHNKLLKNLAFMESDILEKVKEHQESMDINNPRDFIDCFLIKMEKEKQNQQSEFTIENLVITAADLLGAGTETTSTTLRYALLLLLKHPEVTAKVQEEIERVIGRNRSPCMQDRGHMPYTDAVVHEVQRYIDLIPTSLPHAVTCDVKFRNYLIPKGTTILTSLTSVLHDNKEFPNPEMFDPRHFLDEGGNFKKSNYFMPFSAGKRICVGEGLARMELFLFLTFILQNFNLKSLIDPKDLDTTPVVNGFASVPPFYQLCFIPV
T3 sequence (P10635 whole entry): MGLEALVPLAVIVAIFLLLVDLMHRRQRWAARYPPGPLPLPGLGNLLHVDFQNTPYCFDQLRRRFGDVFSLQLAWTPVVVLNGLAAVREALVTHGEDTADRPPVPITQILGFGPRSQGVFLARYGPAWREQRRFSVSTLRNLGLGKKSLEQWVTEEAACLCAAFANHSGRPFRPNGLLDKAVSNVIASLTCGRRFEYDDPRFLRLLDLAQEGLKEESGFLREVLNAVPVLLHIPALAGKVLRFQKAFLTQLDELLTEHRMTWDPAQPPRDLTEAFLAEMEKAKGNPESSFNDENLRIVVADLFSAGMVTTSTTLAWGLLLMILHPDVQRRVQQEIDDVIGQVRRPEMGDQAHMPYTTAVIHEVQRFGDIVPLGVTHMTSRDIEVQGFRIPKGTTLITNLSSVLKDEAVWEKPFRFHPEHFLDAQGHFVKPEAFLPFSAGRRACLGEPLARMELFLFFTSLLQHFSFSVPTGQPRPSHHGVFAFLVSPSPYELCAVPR
T1 sequence (P11712 whole entry): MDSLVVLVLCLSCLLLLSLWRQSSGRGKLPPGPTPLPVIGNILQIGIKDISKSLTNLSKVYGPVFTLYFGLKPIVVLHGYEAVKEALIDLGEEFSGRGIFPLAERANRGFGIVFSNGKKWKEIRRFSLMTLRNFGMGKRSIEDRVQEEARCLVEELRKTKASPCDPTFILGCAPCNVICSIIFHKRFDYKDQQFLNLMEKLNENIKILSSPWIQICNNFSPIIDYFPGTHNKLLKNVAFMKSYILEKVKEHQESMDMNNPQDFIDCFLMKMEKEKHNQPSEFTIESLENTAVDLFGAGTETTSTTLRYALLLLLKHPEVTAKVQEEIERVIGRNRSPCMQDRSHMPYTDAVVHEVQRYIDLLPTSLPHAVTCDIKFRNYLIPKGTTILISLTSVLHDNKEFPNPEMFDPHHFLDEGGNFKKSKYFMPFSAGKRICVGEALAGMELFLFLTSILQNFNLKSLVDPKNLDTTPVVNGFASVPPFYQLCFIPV
T4 sequence (P08684 whole entry): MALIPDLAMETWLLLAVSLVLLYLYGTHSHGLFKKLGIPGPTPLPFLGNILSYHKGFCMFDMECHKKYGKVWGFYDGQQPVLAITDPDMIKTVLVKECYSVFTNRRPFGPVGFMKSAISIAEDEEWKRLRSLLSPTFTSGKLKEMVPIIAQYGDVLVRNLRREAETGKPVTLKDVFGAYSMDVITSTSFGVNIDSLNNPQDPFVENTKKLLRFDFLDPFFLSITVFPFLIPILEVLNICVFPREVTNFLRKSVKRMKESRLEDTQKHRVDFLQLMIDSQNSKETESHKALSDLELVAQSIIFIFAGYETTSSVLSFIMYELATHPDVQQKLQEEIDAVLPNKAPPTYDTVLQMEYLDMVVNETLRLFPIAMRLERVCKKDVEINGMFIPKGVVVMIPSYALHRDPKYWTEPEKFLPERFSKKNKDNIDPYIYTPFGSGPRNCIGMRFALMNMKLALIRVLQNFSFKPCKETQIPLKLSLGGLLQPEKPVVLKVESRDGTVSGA

On to `COc1cc2nn([C@H]3CC[C@](C)(O)CC3)cc2cc1NC(=O)c1cccc(C)[n+]1[O-]` [Compound 001, 2-((2-((1r,4r)-4-hydroxy-4-methylcyclohexyl)-6-methoxy-2H-indazol-5-yl)carbamoyl)-6-methylpyridine 1-oxide], for which the fraction unbound at 5 h, 1 μM in data set [1] is 0.153. Moreover, the “Inhibition rate (%) of TNF-α” value in the data set on TNF-α release turned out to be 74.00%. Besides, the half-maximal inhibitory concentration (IC50) on CYP2C9, against CYP2C19, at CYP2D6 and at CYP3A4 was more than 30 µM throughout.

In the case of `COc1cc2nn(CCC(C)(C)O)cc2cc1NC(=O)c1cccc(C)[n+]1[O-]` [Compound 163, 2-((2-(3-hydroxy-3-methylbutyl)-6-methoxy-2H-indazol-5-yl)carbamoyl)-6-methylpyridine 1-oxide], the fraction unbound at 5 h, 1 μM in data set [1] is 0.194. The “Inhibition rate (%) of TNF-α” value in the data set with TNF-α release was 71.56%. Also, the IC50 against CYP2C9, at CYP2C19, on CYP2D6 and on CYP3A4 was more than 30 µM in each case.
